Target: T1, Type-1 angiotensin II receptor A (Rattus norvegicus) (UniProt P25095)
T1 sequence (whole entry): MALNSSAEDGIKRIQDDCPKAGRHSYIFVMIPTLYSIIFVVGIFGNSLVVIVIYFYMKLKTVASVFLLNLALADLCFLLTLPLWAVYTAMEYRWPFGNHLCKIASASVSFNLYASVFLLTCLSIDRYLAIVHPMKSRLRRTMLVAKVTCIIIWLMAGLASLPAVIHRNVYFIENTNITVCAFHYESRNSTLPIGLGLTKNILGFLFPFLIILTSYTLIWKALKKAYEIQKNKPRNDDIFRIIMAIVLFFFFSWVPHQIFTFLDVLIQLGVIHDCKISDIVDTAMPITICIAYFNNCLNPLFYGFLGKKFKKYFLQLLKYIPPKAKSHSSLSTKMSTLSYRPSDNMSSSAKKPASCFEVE
Experiment: Antagonist activity at rat AT1 receptor expressed in CHO cells assessed as angiotensin 2-evoked increase in intracellular calcium level
Format: functional, cell-based

pKb: 8.8
Compound: CCCCc1ncc(/C=C(\Cc2cccs2)C(=O)O)n1Cc1ccc(C(=O)O)cc1

Reference: ChEMBL document CHEMBL1143189
